We go through 10 molecules from paper PMC9275698, “Morindone from Morinda citrifolia as a potential antiproliferative agent against colorectal cancer cell lines” (PLoS ONE, 2022).

Counter-ions that a name gives are not always drawn.

The subject of one series is LS174T cells. The experiment in a line: MTT cell cytotoxicity assay, LS174T. Particulars: for IC50: Homo sapiens, LS174T, MTT, 72 hours, mean ± SD; for Selectivity index (SI) LS174T: IC50 in normal cells (CCD841 CoN) / IC50 in LS174T. It is filed as cell-based, human. The method, then:
(§1) Three human colorectal cancer cell lines: HT29 cells (colorectal adenocarcinoma with p53 and APC mutation), LS174T cells (colorectal adenocarcinoma with KRAS mutation) and HCT116 cells (colorectal carcinoma with KRAS mutation) as well as normal colon, CCD841 CoN cells were obtained from American Type Cell Culture (Manassas, VA, USA). All cell lines were cultured in an incubator under the condition of 37°C temperature, humidified 5% CO2 air atmosphere. Cells were maintained in Dulbecco’s Modified Eagle Medium (DMEM) (Corning, NY, USA), supplemented with 10% Fetal Bovine Serum (FBS) (Sigma-Aldrich, St Louis, MO, USA), 25mM HEPES (Sangon Biotech, Shanghai, China) and 1% Penicillin/Streptomycin (Merck, Germany).
(§2) HCT116 wells were seeded at 7,500 cells/well while other cells were seeded at 30,000 cells/well in 96 well plates and allowed for 24 hours incubation. Cells were then treated with anthraquinone compounds at series of 2-fold dilution concentrations (50μM, 25μM, 12.5μM, 6.25μM, 3.12μM, 1.56μM, 0.78μM, 0.39μM) for 72 hours. 5-fluorouracil and DOX were used as positive controls in the treatment. Cell cytotoxicity was measured using the MTT Cell Count kit according to the manufacturer’s protocol. Assay was performed in triplicates and repeated in three individual experiments. The absorbance (A) was measured with microplate reader at 570nm wavelength and normalized to control. The half-maximal inhibitory concentration (IC50) value was determined using GraphPad Prism 8 software (GraphPad Software, Inc., CA, USA). Cell viability was calculated as follows: […]

The subject of a further series is HT29 cells. The experiment in a line: MTT cell cytotoxicity assay, HT29. It is filed as cell-based, human. The settings on record: for IC50: Homo sapiens, HT-29, MTT, 72 hours, mean ± SD; for Selectivity index (SI) HT29: IC50 in normal cells (CCD841 CoN) / IC50 in HT29. The method, then: as §1, §2
(Tetrazolium dyes change colour on reduction, which living cells bring about.)

A further series deals with HCT116 cells. The experiment in a line: MTT cell cytotoxicity assay, HCT116. Type of series: cell-based, human. The settings on record: for IC50: MTT, 72 hours, mean ± SD; for Selectivity index (SI) HCT116: IC50 in normal cells (CCD841 CoN) / IC50 in HCT116. Here is the method: as §1, §2
The test system of another series is CCD841 CoN cells. The experiment in a line: MTT cell cytotoxicity assay, normal colon cells. Particulars: Homo sapiens, CCD-841CoN, 72 hours. It is filed as cell-based. Here is the method: as §1, §2
Series [1] relates to MCF-7 cells (breast cancer). The settings on record: cited from earlier work.
Series [2] concerns HCT116 cells (colorectal cancer). The settings on record: cited from earlier work.
Series [3] deals with HepG2 cells (hepatocellular carcinoma). The settings on record: cited from earlier work.
The next series deals with C. lipolytica. On the set-up: method as in PMID 21214480. Particulars: cited from earlier work.
Series [4] concerns oxacillin-resistant Staphylococcus aureus. More on the design: method as in PMID 20521552. The settings on record: cited from earlier work.

As usually defined, the IC50 is the concentration that gives 50% inhibition. Low values mean greater potency, high ones weaker potency. `COc1cccc2c1C(=O)c1c(O)c3c(c(O)c1C2=O)C[C@@](O)(C(=O)CO)C[C@@H]3O[C@H]1C[C@H](N)[C@H](O)[C@H](C)O1` [Doxorubicin hydrochloride, doxorubicin hydrochloride, reference compound]: the half-inhibitory concentration (IC50) came to 2.27 ± 0.04 µM with LS174T cells; 0.3 ± 0.06 µM with HT29 cells; 0.17 ± 0.04 µM with HCT116 cells (Homo sapiens, HCT-116, 72 h).

With `Cc1c(O)cc2c(c1O)C(=O)c1ccccc1C2=O` [Rubiadin (6), Rubiadin], the IC50 in the series on LS174T cells is over 50 µM; in the series with CCD841 CoN cells, over 50 µM; in the series on HT29 cells, over 50 µM; with HCT116 cells (Homo sapiens, HCT-116, 72 h), over 50 µM.

As usually defined, the melting point is the temperature of the solid-liquid transition. With `COc1c(O)cc2c(c1O)C(=O)c1ccc(C)c(O)c1C2=O` [1,3,5-trihydoxy-2-methoxy-6-methyl anthraquinone], the melting point lay in the range of 235 to 239 °C. Further, in the series with LS174T cells, the IC50 is over 50 µM and the “Selectivity index (SI) LS174T” value amounted to 0.97. The molecule further returned an IC50 in the series with CCD841 CoN cells of over 50 µM. In the series on HT29 cells, the IC50 is over 50 µM and the “Selectivity index (SI) HT29” value was found to be 0.03. For the same molecule, the IC50 in the series with HCT116 cells (Homo sapiens, HCT-116, 72 h) is under 25 µM. In addition, in the series on HCT116 cells, the “Selectivity index (SI) HCT116” value is on record as 4.55 and the IC50 came to 24.57 ± 0.07 µM.

The molecule `COCc1c(O)cc2c(c1O)C(=O)c1ccccc1C2=O` [Lucidin-ω-methylether (8), Lucidin-ω-methylether] yielded a melting point of 170 to 173 °C. Further, the IC50 in the series with LS174T cells is over 50 µM. In the series on CCD841 CoN cells, this molecule came in with an IC50 of over 50 µM. In the series on HT29 cells, this molecule returned an IC50 of over 50 µM. In the series with HCT116 cells (Homo sapiens, HCT-116, 72 h), this molecule had an IC50 of under 25 µM. The molecule also showed an IC50 with HCT116 cells of 14.88 ± 0.01 µM.

In the case of `COc1c(C=O)c(O)cc2c1C(=O)c1ccccc1C2=O` [Damnacanthal (2), Damnacanthal], the IC50 is over 50 µM in the series on LS174T cells; over 50 µM in the series on CCD841 CoN cells; 28.17 ± 0.08 µM in the series on HT29 cells; 0.74 ± 0.06 µM in the series on HCT116 cells; under 25 µM in the series on HCT116 cells (listed as damnacanthal). In addition, the “Selectivity index (SI) LS174T” value with LS174T cells turned out to be 0.28. Moreover, the “Anticancer and antitumor activities towards MCF-7 cells” value in series [1] is “Good anticancer and antitumor activities”. The “Anticancer and antitumor activities towards HCT116 cells” value in series [2] was “Good anticancer and antitumor activities”. Moreover, in [3], the “Anticancer and antitumor activities towards HepG2 cells” value was “Good anticancer and antitumor activities”. Also, the “Selectivity index (SI) HT29” value in the series on HT29 cells is 24.85. Besides, the “Selectivity index (SI) HCT116” value in the series on HCT116 cells is recorded as 951.60.

In the case of `COc1c(CO)c(O)cc2c1C(=O)c1ccccc1C2=O` [Damnacanthol (7), Damnacanthol], the melting point fell in the range of 156 to 158 °C. Besides, in the series on LS174T cells, the IC50 is over 50 µM and the “Selectivity index (SI) LS174T” value stood at 0.59. This molecule came in with an IC50 in the series on CCD841 CoN cells of over 50 µM. Further, in the series with HT29 cells, the IC50 was over 50 µM and the “Selectivity index (SI) HT29” value is on record as 1.46. In the series on HCT116 cells (Homo sapiens, HCT-116, 72 h), this molecule yielded an IC50 of under 25 µM. In the series with HCT116 cells, this molecule gave an IC50 of 18.47 ± 0.02 µM.

In the case of `O=c1[nH]cc(F)c(=O)[nH]1` [5-Fluorouracil, 5-fluorouracil, reference compound], the IC50 was found to be 4.16 ± 0.02 µM with LS174T cells; 0.2 ± 0.05 µM in the series on HT29 cells; 5 ± 0.04 µM in the series on HCT116 cells (Homo sapiens, HCT-116, 72 h).

Regarding `Cc1ccc2c(c1O)C(=O)c1ccc(O)c(O)c1C2=O` [Morindone (4), Morindone], in the series with C. lipolytica, the “Antimicrobial activity against C. lipolytica” value is listed as “strong antimicrobial activity”. The 50% inhibitory concentration (IC50) in the series with LS174T cells is 20.45 ± 0.03 µM; with CCD841 CoN cells it was over 50 µM; in the series with HT29 cells it was 19.2 ± 0.05 µM; with HCT116 cells, 10.7 ± 0.04 µM; in the series with HCT116 cells (listed as morindone), under 25 µM. Further, the “Selectivity index (SI) LS174T” value in the series with LS174T cells is on record as 39.89. The “Antimicrobial activity against oxacillin-resistant Staphylococcus aureus” value in series [4] is on record as “strong antimicrobial activity”. Also, the “Selectivity index (SI) HT29” value with HT29 cells amounted to 42.49. In the series with HCT116 cells, the “Selectivity index (SI) HCT116” value is reported as 76.25.

As for `O=Cc1c(O)cc2c(c1O)C(=O)c1ccccc1C2=O` [Nordamnacanthal (1), Nordamnacanthal], the melting point fell in the range of 219 to 222 °C. In addition, in the series on LS174T cells, the IC50 is over 50 µM and the “Selectivity index (SI) LS174T” value is reported as 4.79. This molecule also showed an IC50 in the series on CCD841 CoN cells of over 50 µM. In the series with HT29 cells, the IC50 was over 50 µM and the “Selectivity index (SI) HT29” value is 0.42. In the series on HCT116 cells (Homo sapiens, HCT-116, 72 h), this molecule yielded an IC50 of over 50 µM. In the series with HCT116 cells, the “Selectivity index (SI) HCT116” value was determined as 0.97.

For `Cc1ccc2c(c1O)C(=O)c1ccc(O)cc1C2=O` [Sorendidiol (5), Sorendidiol], the IC50 with LS174T cells was over 50 µM; with CCD841 CoN cells, over 50 µM; in the series on HT29 cells, 27.17 ± 0.07 µM; with HCT116 cells (Homo sapiens, HCT-116, 72 h) it was over 50 µM. For the same molecule, the “Selectivity index (SI) HT29” value with HT29 cells was determined as 29.19. The “Selectivity index (SI) HCT116” value with HCT116 cells stood at 7.10.
